Consider three compounds from patent US9981972B2, “N-hydroxy bicyclic hydantoin carbamates as tools for identification of serine hydrolase targets” (ABIDE THERAPEUTICS, INC., priority 2014, dated 2018).

“Also recorded” adds a separate entry of the source.

One experiment concerns the target T1, LYPLA1 (Mus musculus, UniProt P97823).
T1 construct: a complex proteome endogenously expressing LYPLA1/2 was incubated with test compound; from tissue; host or cells: mouse brain, membrane fraction
Briefly: Gel-based competitive ABPP in vitro, mouse brain membrane proteome. It counts as biochemical. As to conditions: 30 min, one replicate; for inhibition at 0.1 µM: 0.1 μM compound, read-out: LYPLA1 % INH 0.1 μM; for inhibition at 1 µM: 1 μM compound, read-out: LYPLA1 % INH 1 μM; for inhibition at 10 µM: 10 μM compound, read-out: LYPLA1 % INH 10 μM; for inhibition at 100 µM: 100 μM compound, read-out: LYPLA1 % INH 100 μM. The procedure:
(§1) Assay Overview: The purpose of this assay was to determine whether test compounds can inhibit LYPLA1 and LYPLA2 in a complex proteomic lysate and to assess anti-target inhibition using a competitive activity-based proteomic profiling (ABPP) assay. In this assay, a complex proteome endogenously expressing LYPLA1/2 was incubated with test compound followed by reaction with a rhodamine-conjugated fluorophosphonate (FP-Rh) serine-hydrolase specific activity-based probe. The reaction products were separated by SDS-PAGE and visualized in-gel using a flatbed fluorescence scanner. The percentage activity remaining was determined by measuring the integrated optical density of the bands. […] Percent inhibition was calculated relative to a DMSO (no compound) control.
(§2) Protocol Summary: Mouse brain membrane proteome (50 μL reaction volume, 1 mg/mL in DPBS) was treated with 0.1-100 μM test compound (1 μL of a 50× stock in DMSO) for 30 minutes at 37° C. FP-Rh (1 μL of 50× stock in DMSO, Thermo #88318) was added to a final concentration of 2 μM. The reactions were incubated for 30 minutes at 25° C., quenched with 16 μL 4×SDS-PAGE loading buffer (reducing), separated by SDS-PAGE and visualized by in-gel fluorescent scanning. The percentage activity remaining was determined by measuring the integrated optical density of the bands relative to a DMSO-only (no compound) control. Assay Cutoff: Compounds with ≥50% inhibition of targets at 1 μM test compound concentration were considered active.
(§3) N-Hydroxy bicyclic hydantoin carbamates (Compounds 1-20) listed in Table 1 were subjected to gel-based competitive ABPP screening to assess SH reactivity against more than 20 FP-sensitive SHs visible by 1D SDS-PAGE separation and fluorescent detection in the mouse brain proteome (see FIG. 1). […] Compound treatment ([…], 30 minutes) was followed by labeling with SH-specific ABPP probe FP-Rh (2 μM, 30 minutes), 1D-SDS-PAGE, and in-gel fluorescent visualization of FP-labeled proteins. Assignment of LYPLA1/2 bands was based on correlation of molecular weights, expression and inhibition profiles with LC-MS/MS data and recombinant enzyme expression. Proteins were listed as anti-targets if at least 50% inhibition was observed as quantified relative to the DMSO control.
(§4) Compounds 1-20 were subjected to gel-based competitive ABPP profiling to assess potency and selectivity against several dozen FP-sensitive SHs in the mouse brain membrane proteome, which endogenously expresses LYPLA1 and LYPLA2, as well a diversity of potential SH anti-targets. Compounds were tested at 100 μM, 10 μM, 1 μM, and/or 0.1 μM compound concentration.

The target in another experiment is T2, LYPLA2 (Mus musculus, UniProt Q9WTL7).
T2 construct: a complex proteome endogenously expressing LYPLA1/2 was incubated with test compound; from tissue; host or cells: mouse brain, membrane fraction
T2 sequence (Q9WTL7 whole entry): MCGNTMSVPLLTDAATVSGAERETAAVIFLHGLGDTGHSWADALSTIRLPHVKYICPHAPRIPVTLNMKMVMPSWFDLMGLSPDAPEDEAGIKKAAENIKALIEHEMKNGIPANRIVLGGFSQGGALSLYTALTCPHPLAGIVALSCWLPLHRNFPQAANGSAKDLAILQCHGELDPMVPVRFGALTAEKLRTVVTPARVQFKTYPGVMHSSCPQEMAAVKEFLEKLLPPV
Described as above. The class given is biochemical. As to conditions: 30 min, one replicate; for inhibition at 0.1 µM: 0.1 μM compound, read-out: LYPLA2 % INH 0.1 μM; for inhibition at 1 µM: 1 μM compound, read-out: LYPLA2 % INH 1 μM; for inhibition at 10 µM: 10 μM compound, read-out: LYPLA2 % INH 10 μM; for inhibition at 100 µM: 100 μM compound, read-out: LYPLA2 % INH 100 μM. The procedure: as §1, §2, §3, §4

The test system of experiment [1] is FP-sensitive SHs in the mouse brain membrane proteome. The experiment is described as follows: Gel-based competitive ABPP in vitro, mouse brain membrane proteome, anti-targets. It counts as biochemical. Particulars: for Anti-target(s) 0.1 μM: SHs with at least 50% inhibition at 0.1 μM compound; for Anti-target(s) 1 μM: SHs with at least 50% inhibition at 1 μM compound; for Anti-target(s) 10 μM: SHs with at least 50% inhibition at 10 μM compound; for Anti-target(s) 100 μM: SHs with at least 50% inhibition at 100 μM compound. The procedure:
as §1, §2, §3, §4

A further experiment addresses T3, human LYPLA1 (Homo sapiens, UniProt O75608).
T3 construct: endogenous human LYPLA1/2 in a HeLa soluble proteome; endogenous in cells; host or cells: HeLa (soluble proteome in vitro; cultured cells in situ)
The experiment is described as follows: IC50 by gel-based competitive ABPP in vitro, soluble HeLa cell proteome. It counts as biochemical. As to conditions: human LYPLA isoform, three replicates; Table 2 prints no unit, nM; read-out: LYPLA1 IC50. The protocol: (§5) Assay Overview: The purpose of this assay was to determine IC50 values of powder samples of test compounds for enzyme of interest activity, and anti-targets in a complex proteomic lysate using a gel-based competitive ABPP assay. In this assay, a complex proteome was incubated with test compound followed by reaction with FP-Rh and SDS-PAGE analysis as described above.
(§6) Protocol Summary: Soluble HeLa cell proteome (50 μL reaction volume, 1 mg/mL in DPBS) or mouse brain membrane proteome (50 μL reaction volume, 1 mg/mL in DPBS) was treated with varying concentrations of test compound (1 μL of a 50× stock in DMSO) for 30 minutes at 37° C. FP-Rh (1 μL of 50× stock in DMSO) was added to a final concentration of 2 μM. The reaction was incubated for 30 minutes at 25° C., quenched with 16 μL 4×SDS-PAGE loading buffer (reducing), separated by SDS-PAGE and visualized by in-gel fluorescent scanning. The percentage activity remaining was determined by measuring the integrated optical density of the enzymes of interest, and anti-target bands relative to a DMSO-only (no compound) control. IC50 values were determined from dose-response curves from three replicates at each inhibitor concentration: 1, 10, 100, 1000, 10000 nM and 0.01, 0.1, 1, 10, 100, 1000, 10000, 50000, and 100000 nM.

In another experiment the target is T4, human LYPLA2 (Homo sapiens, UniProt O95372).
T4 construct: endogenous human LYPLA1/2 in a HeLa soluble proteome; endogenous in cells; host or cells: HeLa (soluble proteome in vitro; cultured cells in situ)
T4 sequence (O95372 whole entry): as the sequence (Q9WTL7 whole entry) above, with N154A, T193S counted along it
Described as above. The class given is biochemical. Particulars: human LYPLA isoform, three replicates; Table 2 prints no unit, nM; read-out: LYPLA2 IC50. The procedure: as §5, §6

A further experiment has as its target T5, ABHD4 (Homo sapiens, UniProt Q8TB40).
T5 sequence (Q8TB40 1-342): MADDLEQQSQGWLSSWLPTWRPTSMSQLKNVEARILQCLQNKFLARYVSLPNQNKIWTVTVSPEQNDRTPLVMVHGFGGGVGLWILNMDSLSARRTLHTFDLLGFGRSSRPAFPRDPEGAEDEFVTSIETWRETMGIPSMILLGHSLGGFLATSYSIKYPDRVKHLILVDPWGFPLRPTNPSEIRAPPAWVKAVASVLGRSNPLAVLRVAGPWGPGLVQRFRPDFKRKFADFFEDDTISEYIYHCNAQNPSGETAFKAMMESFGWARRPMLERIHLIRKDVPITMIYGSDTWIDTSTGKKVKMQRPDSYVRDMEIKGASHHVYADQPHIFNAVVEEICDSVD
Briefly: Gel-based competitive ABPP, recombinant enzyme in transfected HEK293T cell lysates. More on the design: myc-his; expressed in transfected cells; host or cells: HEK293T, transient transfection, pcDNA3.1/myc-his; lysate used in vitro. Particulars: recombinant, combined HEK293T lysates, gel-based ABPP. The class given is biochemical. The procedure:
(§7) HEK293T cells were seeded at 2×10^5 per well on 6 well plates and grown for 48 h. They were then transfected with mABHD3 (pCMV-Sport6), hABHD4 (pcDNA3.1/myc-his), hPPT1 (pCMV6-XL5), or hPPT1 S115A (pCMV6-XL5), by incubating 0.5 μg of DNA with 3 μL of PEI MAX (1 mg/mL, Polysciences, Inc) in serum-free DMEM for 30 min, then adding them to cells. After 48 h cells were either treated with compound in situ, as described above, or harvested for in vitro studies. The […] PPT1 mutation was introduced using QuikChange II Site Directed Mutagenesis Kit (Agilent) with the following primers: […]
Human ABHD3 and ABHD4 were recombinantly expressed by transient transfection in HEK293T cells, and the cell lysates were combined to provide a convenient assay for monitor inhibition of both enzymes by gel-based ABPP (see FIG. 8A). […]

A further experiment deals with T6, PPT1 (Homo sapiens, UniProt P50897).
T6 sequence (P50897 28-306): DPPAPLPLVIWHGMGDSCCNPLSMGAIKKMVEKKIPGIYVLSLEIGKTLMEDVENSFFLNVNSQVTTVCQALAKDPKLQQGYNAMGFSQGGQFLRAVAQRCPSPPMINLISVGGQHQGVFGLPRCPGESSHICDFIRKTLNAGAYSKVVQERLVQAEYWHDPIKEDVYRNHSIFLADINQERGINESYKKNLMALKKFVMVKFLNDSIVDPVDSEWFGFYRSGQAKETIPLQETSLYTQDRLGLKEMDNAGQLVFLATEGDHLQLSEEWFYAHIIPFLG
The experiment is described as follows: In situ inhibition of hPPT1 in transfected HEK293T cells, competitive ABPP with Compound 39 probe. The class given is cell-based. More on the design: expressed in transfected cells; host or cells: HEK293T. As to conditions: 2 μM, hPPT1-transfected HEK293T cells, in situ. The procedure: as §7
In situ inhibitor treatments of human cell lines were performed as described previously (Hsu et al., J Med Chem 56, 8270-8279, 2012). Briefly, PC3 or transfected HEK293T cells were grown to confluency in serum-containing media (RPMI or DMEM, respectively). The culture media was then removed and replaced with fresh media containing DMSO or inhibitor at the desired concentration and incubated for 4 hours in a tissue culture incubator (37° C., 5% CO2). Cells were then washed with PBS, harvested, washed with PBS once more, and lysed with a probe sonicator.
This possibility was explored by treating HEK293T cells transfected with human PPT1 (hPPT1) with Compound 37 (5 μM, 4 h pre-treatment) or DMSO followed by cell lysis and treatment with Compound 39 (5 μM, 1 h). A strong, but diffuse Compound 37-sensitive, Compound 39-labeled protein band was detected by gel-based ABPP in hPPT1-transfected, but not mock-transfected cell lysates (see FIG. 14), and this diffuse signal was compressed to a tight, faster-migrating band matching the predicted molecular weight of PPT1 following treatment with the glycosidase PNGaseF (see FIG. 14). Western blotting with an anti-PPT1 antibody confirmed a similar migration pattern for hPPT1 protein in transfected cell lysates (see FIG. 14, bottom panel).
A structurally diverse panel of N-hydroxy bicyclic hydantoin carbamates were assayed at 2 or 0.2 μM for in situ inhibition of hPPT1 in transfected HEK293T cells.

In general, IC50 refers to the concentration needed to halve the response being measured.

T1 sequence (P97823 whole entry): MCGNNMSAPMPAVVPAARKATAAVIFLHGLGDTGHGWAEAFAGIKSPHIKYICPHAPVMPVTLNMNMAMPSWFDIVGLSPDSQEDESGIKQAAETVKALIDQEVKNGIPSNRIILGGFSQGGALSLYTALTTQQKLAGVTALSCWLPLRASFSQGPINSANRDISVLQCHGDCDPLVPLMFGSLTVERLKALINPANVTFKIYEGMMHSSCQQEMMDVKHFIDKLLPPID
T3 sequence (O75608 whole entry): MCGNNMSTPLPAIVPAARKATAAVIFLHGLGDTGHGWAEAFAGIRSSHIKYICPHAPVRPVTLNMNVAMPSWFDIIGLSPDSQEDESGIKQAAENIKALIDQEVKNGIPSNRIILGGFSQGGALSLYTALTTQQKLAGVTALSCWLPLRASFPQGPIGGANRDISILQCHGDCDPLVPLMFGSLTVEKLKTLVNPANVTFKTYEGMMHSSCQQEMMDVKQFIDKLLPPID

For `O=C(ON1C(=O)C2CN(C(=O)c3ccc(Br)cc3)CCN2C1=O)N1CCC(CCc2ccc(Cl)cc2)CC1` (stereo not shown) [Compound 7, 7-(4-bromobenzoyl)-1,3-dioxohexahydroimidazo[1,5-a]pyrazin-2(3H)-yl 4-(4-chlorophenethyl)piperidine-1-carboxylate], at LYPLA1, the inhibition at 0.1 µM came to 0%, the inhibition at 1 µM came to 80%, the inhibition at 10 µM came to 95% and the inhibition at 100 µM amounted to 100%. At LYPLA2, the inhibition at 0.1 µM was 0%, the inhibition at 1 µM came out at 80%, the inhibition at 10 µM was 95% and the inhibition at 100 µM stood at 100%. In experiment [1], the “Anti-target(s) 0.1 μM” value is “ABHD6”, the “Anti-target(s) 1 μM” value is “ABHD6”, the “Anti-target(s) 10 μM” value was “FAAH,; also recorded: ABHD12,; also recorded: ABHD6” and the “Anti-target(s) 100 μM” value was “FAAH,; also recorded: ABHD12,; also recorded: ABHD4,; also recorded: MAGL,; also recorded: ABHD6”. The IC50 on human LYPLA1 is 306 nM. For the same compound, the IC50 on human LYPLA2 is 726 nM.

On to `O=C(ON1C(=O)C2CN(Cc3ccc(Br)cc3)CCN2C1=O)N1CCC(CCc2ccc(Cl)cc2)CC1` (stereo not shown) [Compound 13, 7-(4-bromobenzyl)-1,3-dioxohexahydroimidazo[1,5-a]pyrazin-2(3H)-yl 4-(4-chlorophenethyl)piperidine-1-carboxylate], for which, at LYPLA1, the inhibition at 0.1 µM stood at 0%, the inhibition at 1 µM was 10%, the inhibition at 10 µM came out at 75% and the inhibition at 100 µM turned out to be 90%. Besides, on LYPLA2, the inhibition at 0.1 µM was 0%, the inhibition at 1 µM was 10%, the inhibition at 10 µM is 75% and the inhibition at 100 µM turned out to be 90%. Besides, in experiment [1], the “Anti-target(s) 0.1 μM” value is given as “ABHD6”, the “Anti-target(s) 1 μM” value was “FAAH,; also recorded: ABHD4,; also recorded: ABHD6”, the “Anti-target(s) 10 μM” value was “FAAH,; also recorded: ABHD4,; also recorded: ABHD6” and the “Anti-target(s) 100 μM” value is given as “FAAH,; also recorded: ABHD4,; also recorded: MAGL,; also recorded: ABHD6”. On ABHD4, the “preference ABHD4 over ABHD3” value is reported as “preferentially inhibited ABHD4 over ABHD3”.

Consider `COc1ccc(N2CCN(C(=O)ON3C(=O)C4CN(CC5CCN(C(=O)OC(C)(C)C)CC5)CCN4C3=O)CC2)cc1` (stereo not shown) [Compound 24, 7-((1-(tert-butoxycarbonyl)piperidin-4-yl)methyl)-1,3-dioxohexahydroimidazo[1,5-a]pyrazin-2(3H)-yl 4-(4-methoxyphenyl)piperazine-1-carboxylate], for which, on PPT1, the “hPPT1 (in situ), % @ 2 μM” value is 100% @ 2 μM.
